The values below are quoted from earlier work in US11759428B2, “Pharmaceutical formulation comprising esomeprazole and sodium bicarbonate” (CHONG KUN DANG PHARMACEUTICAL CORP., priority 2018, dated 2023).

For this data set the following is noted: aqueous solution having 3 or lower of pH.

Regarding `COc1ccc2nc([S@@+]([O-])Cc3ncc(C)c(OC)c3C)[nH]c2c1` [esomeprazole, (S)-5-methoxy-2-[(4-methoxy-3,5-dimethyl-2-pyridinyl)-methyl]sulfinyl-1H-benzimid azol], the degradation half-life result is reported as “less than 10 minutes”.
